Results from patent US7737128B2, “Pyrimidines, such as uridine, in treatments for patients with bipolar disorder” (The McLean Hospital Corporation, priority 2004, dated 2010).
Like-named read-outs stand apart in the source and are kept apart here.

Assays:
[1] = in vivo; settings: both sexes, Crl: CD (SD)IGS BR, rat, po
Protocol: RG2133 has been tested in a repeat dose rodent toxicity and toxicokinetic study. Three groups of ten male and ten female rats (Crl: CD® (SD)IGS BR strain) received RG2133 orally, by gavage, at dosages of 300, 1000, or 2000 mg/kg/day (administered as 150, 500, or 1000 mg/kg b.i.d.) in aqueous 1% carboxymethylcellulose with methyl paraben (at 1.8 g/l) and propyl paraben (at 0.2 g/l) for four weeks. Animals were examined by observation and lab analysis of blood and urine for evidence of toxicity, and results are shown in Table 1. Tissues were examined microscopically for evidence of drug related toxicity. […] The no-observed-adverse-effect-level (NOAEL) was considered to be 2000 mg/kg/day (1000 mg/kg b.i.d.).

[2] = test system: blood lactate levels; experiment: Plasma lactate elevation after oral gavage (stress response) during repeat dose toxicology study; format: in vivo, rats; settings: rat plasma lactate
[3] = test system: patients with bipolar disorder; experiment: Adverse events in the 6-week patient study; format: in vivo, human
Source text: The total number of adverse events is reported by the number and percentage of subjects experiencing each adverse event. If a subject reported the same adverse event over the course of the study, that event was counted once.
During the course of the 6-week study, there were some reported side effects to the medication. 1 subject reported stomach cramps, 1 reported nausea, 4 reported decreased appetite, 3 reported an increase in constipation, 4 reported diarrhea, 1 reported muscle cramps, 2 reported headaches, 1 reported fatigue, 2 reported problems with sleeping, 2 reported increased flatulence, and 1 reported a decrease in libido. In addition, one subject reported changes in their vision that affected their depth perception. […] The subject independently decided to increase their dose back to its original amount in response to their manic reaction to the decreased dose. Due to this protocol deviation, and the subject's manic break, the subject was terminated from the study.

[4] = test system: fluorouracil toxicity; settings: cited from earlier work
[5] = metabolites, not the prodrug, are observed in blood; cited from earlier work
[6] = test system: patients with bipolar disorder; experiment: Phase I 6-week open-label clinical trial in outpatients with bipolar disorder (rating scales, patient histories)
Source text: The new methods are based on a Phase I open-label clinical trial of RG2133, a prodrug of uridine, designed to assess the impact of uridine in patients with bipolar disorder. […] The trial assessed the impact of daily, oral administration of escalating doses of RG2133 over a 6 week period on the symptoms associated with bipolar disorder, which are not adequately treated with existing drugs including SSRIs such as Prozac® or Zoloft®. The trial included 11 patients.
Outpatients with bipolar disorder were recruited for this 6-week open-label study. Patients' daily dose amounts were divided into three daily doses. Subjects received an initial RG2133 dose of 6 g/day. […] Subjects were monitored for changes in mood using standard rating scales. The subjects' physical status was followed clinically and with standard laboratory measures to monitor for any adverse effects and/or toxicity.
During the baseline visit, a detailed psychiatric and medical history was obtained, and the following standard rating scales were performed: Structured Clinical Interview for DSM-IV (SCID) for diagnosis, Young Mania Rating Scale (YMRS), Montgomery-Asberg Depression rating Scale (MADRS), the Hamilton Anxiety Scale (HAMA), Clinical Global Impression scale (CGI), the Global Assessment of Function (GAF) scale, quality of life scale (SF-36), as well as a brief adverse-effect rating scale.
After the baseline evaluation, patients returned for office visits at weeks 1, 2, 3, 4, and 6. The same rating scales were performed at each follow-up office visit, except for the SCID. Instead of the full SCID at the follow-up visits, only the SCID screening questions for mania and depression were performed to aid in the determination of syndromic recovery or recurrence. In addition, patients maintained a daily Mood Diary, which was reviewed at each study visit to elicit symptom recall. Routine clinical and laboratory evaluations of each patient's physical status occurred at baseline and at regular intervals. Subjects were monitored for changes in mood using standard rating scales. The subjects' physical status was followed clinically and with standard laboratory measures to monitor for any adverse effects and/or toxicity.
During the study patients were evaluated using the Montgomery-Asberg Depression Rating Scale (MADRS). This scale measures the effect of treatment on depression severity relative to a baseline assessment before treatment. The MADRS measures the severity of a number of symptoms on a scale from 0 to 60, including mood and sadness, tension, sleep, appetite, energy, concentration, suicidal ideation, and restlessness. Increasing scores reflect a greater severity of depression. Scores of 15-25 on the MADRS scale indicate moderate depression. Scores above 25 indicate clinically severe depression.
During the study patients were also evaluated using the Young Mania Rating Scale (YMRS). This scale assesses the severity of mania in patients already diagnosed with mania based on a personal interview. Scores of 1 to 12 are not considered to be suffering from mania, whereas a score of 13 indicates minimal mania. Increasing scores to 44, indicate progressively severe mania.
During the study patients were also evaluated using Clinical Global Impression (CGI) scale. A clinician rated the severity of the patient's illness relative to the clinician's past experience with patients with the same diagnosis. At the outset of the study a clinician created a baseline single item score on a 7 point scale from 1 (‘normal’, not ill) to 7 (extremely ill). CGI was then used to track the clinical distance between a patient's individual's current condition and his or her baseline condition at the start of treatment.
During the study patients were evaluated using Global Assessment of Functioning (GAF), which is a modified version of the Global Assessment Scale (GAS).

[7] = uridine infusion, cited from earlier work
[8] = cited from earlier work
[9] = in vivo; cited from earlier work
[10] = oral, cited from earlier work
[11] = bipolar patients, daily oral escalating doses, 6 weeks

For `CC(=O)OC[C@H]1O[C@@H](n2ccc(=O)[nH]c2=O)[C@H](OC(C)=O)[C@@H]1OC(C)=O` [RG2133, 2′,3′,5′-tri-O-acetyluridine], the NOAEL at 28 days [1] was 2000 mg/kg/day, the “Effect on lactate level relative to normal baseline value (2.4 mM)” value [2] was “did not reduce the lactate level below the normal baseline value” and the “Subjects reporting a decrease in libido” value ([3]; 6-week study) was 1. For the same compound, the “Subjects reporting an increase in constipation” value ([3]; 6-week study) was 3, the “Subjects reporting changes in vision that affected depth perception” value ([3]; 6-week study) was “one” and the “Subjects reporting decreased appetite” value ([3]; 6-week study) was 4. For the same compound, the Subjects reporting diarrhea ([3]; 6-week study) was 4, the Subjects reporting fatigue ([3]; 6-week study) was 1 and the Subjects reporting headaches ([3]; 6-week study) was 2. For the same compound, the “Subjects reporting increased flatulence” value ([3]; 6-week study) was 2, the “Subjects reporting muscle cramps” value ([3]; 6-week study) was 1 and the Subjects reporting nausea ([3]; 6-week study) was 1. The “Subjects reporting problems with sleeping” value ([3]; 6-week study) was 2, the “Subjects reporting stomach cramps” value ([3]; 6-week study) was 1 and the “Subjects reporting weaker vision” value ([3]; 6-week study) was “Another subject”. The “Subjects reporting a manic episode” value ([3]; week 3, after reducing the dose) was “One”, the “Effect on hematologic toxicities associated with fluorouracil” value ([4]; 6 g/dose every 6 hours) was “reduction in hematologic toxicities” and the Adverse effect seen ([4]; cancer patients, toxicity evaluation equivocal because of cancer and fluorouracil toxicities) was “Diarrhea”. The “peak blood uridine levels” value ([4]; suspension and tablet forms, 6 g/dose every 6 hours for 9 doses) was 167 µM, the “Metabolism of enteral dosages” value [5] was “rapidly metabolized to uridine and uracil” and the “Individual patient: mania-type event” value ([6]; Patient #3, bipolar II, on antidepressant, 12 g/day) was “slight hypomania at week three”. The “Individual patient: reported mood” value ([6]; Patient #4, bipolar I, on antidepressant, 6 to 12 g/day) was “feeling stable”, the “Individual patient: mood at end of study” value ([6]; Patient #4, week six) was “mood deteriorated at week six” and the “Individual patient: mania-type event” value ([6]; Patient #4, week three) was “some hypomania at week three”. For the same compound, the “Individual patient: reported mood” value ([6]; Patient #5, bipolar I, no antidepressant, 6 g/day) was “significant change in mood at week one”, the “Individual patient: adverse effect” value ([6]; Patient #6) was “some eye pain” and the “Individual patient: reported mood” value ([6]; Patient #6, no antidepressant, 6 g/day) was “feeling significantly better than they had in two years”. For the same compound, the “Individual patient: reported mood” value ([6]; Patient #7, bipolar I, on antidepressant, 6 to 18 g/day) was “no change in mood”, the “Individual patient: adverse event” value ([6]; Patient #11) was “severe bout of colitis” and the “Individual patient: bipolar symptoms” value ([6]; Patient #11, bipolar II, on antidepressant, 12 g/day) was “complete remission at week four”. For the same compound, the “Individual patient: adverse effect” value ([6]; Patient #13) was “slight change in depth perception leading to two falls”, the “Individual patient: reported mood” value ([6]; Patient #13, bipolar I, no antidepressant, 6 to 9 g/day) was “feeling less depressed and more hopeful” and the “Individual patient: complaints” value ([6]; Patient #15, after three weeks) was “dizziness spells, constipation, and a reported manic episode”. The “Individual patient: reported mood” value ([6]; Patient #15, bipolar II, no antidepressant, 6 to 12 g/day) was “feeling less volatile and fewer mood swings”, the “Individual patient: complaints” value ([6]; Patient #16) was “loose stools and increased flatulence” and the “Individual patient: reported mood” value ([6]; Patient #16, bipolar II, on antidepressant, 6 to 12 g/day) was “no change in mood”. For the same compound, the “Individual patient: complaints” value ([6]; Patient #17) was “loose stools and increased flatulence”, the “Individual patient: reported mood” value ([6]; Patient #17, bipolar II, on antidepressant, 6 to 12 g/day) was “no change in mood” and the “Average GAF score” value ([6]; after week four (FIG. 4)) was “declined to a level slightly above the initial GAF score”. The “Average GAF score” value ([6]; beginning of the study to week four (FIG. 4)) was “improved slightly”, the “Average MADRS scores” value ([6]; between week three and week six (FIG. 1)) was “rose slightly” and the Induction of mania [6, 11] was “did not induce mania”. The Safety of administration [6, 11] was “safe”, the “Average female CGI scores” value ([6]; course of the study relative to initial score, unlike male scores (FIG. 7)) was “improved” and the “Averaged YMRS scores” value ([6]; during the course of the study (FIG. 2)) was “slight decrease”. For the same compound, the “Average HAM-A score” value ([6]; during the course of the study (FIG. 5)) was “went down slightly”, the “Female YMRS scores vs initial baseline” value ([6]; during the study (FIG. 6)) was “did not increase above the initial baseline score” and the “Average CGI score” value ([6]; end of the study vs baseline (FIG. 3)) was “somewhat above baseline”. For the same compound, the “Average MADRS scores” value ([6]; first three weeks of treatment (FIG. 1)) was “slight decrease”, the “Average YMRS, female patients” value ([6]; first three weeks, female vs male (FIG. 6)) was “declined slightly more than males” and the “Average CGI scores, patients not taking antidepressant” value ([6]; vs patients on antidepressant medication (FIG. 8)) was “faster decline”. For the same compound, the CGI ([6]; weeks one to three (FIG. 3)) was “improved slightly”, the CGI ([6]; weeks three to six (FIG. 3)) was “deteriorated slightly” and the “Effect on patients' depression (MADRS)” value ([6]; whole study) was “did not significantly worsen patients' depression”.

In the case of `O=c1ccn([C@@H]2O[C@H](CO)[C@@H](O)[C@H]2O)c(=O)[nH]1` [uridine], the “Plasma concentrations above baseline values” ([7]; baseline 3 μM) is listed as over 100 fold, the Observed side effect [7] is listed as “fever” and the “Effect of higher dosages” value ([8]; above 1000 mg/kg/day, some patients) is listed as “mild diarrhea”. The “Dosages with no known toxic effects” value ([8]; pure uridine, long-term experience) was “up to 1000 mg/kg/day”, the volume distribution [9] was “around 0.634 liters/kg” and the Reported effects ([10]; 10 or 12 g/m^2) was “cramps and diarrhea”. For the same compound, the “maximum tolerated dose without side effects” value ([10]; multiple dosing every 6 hours) was 5 g/m^2, the Reported effects ([10]; repeat doses every 6 hours of 8 g/m^2) was “diarrhea” and the “maximum tolerated dose without side effects” value ([10]; single dose) was 10 g/m^2. The Bioavailability [10] was 5.8-9.9%, the “Doses at which no toxicity was observed” value [10] was at most 8 g/m^2 and the “peak plasma levels of uridine” value [10] was 80 µM.
